The values below come from patent publication US11168052B2, “Carbamate derivative compounds, processes for preparing them and their uses” (BIO-PHARM SOLUTIONS CO., LTD., priority 2016, dated 2021).

For assay [1], the system named is Picrotoxin (PIC)-induced clonic seizure in mice. The experiment in a line: Chemical induced seizure model (PIC). Format: in vivo, ICR mice. The settings on record: mice, dose 50 mg/kg. The method, then: Picrotoxin (PIC) were used to induce the behavioral seizures in the experiments. Male ICR mice (purchased from Orient Bio Inc. Korea) of body weight 19-26 g (mice) were used for these studies. The test materials were administered intraperitoneal (ip) route in a volume of 10 ul/g (mice) weight in rats or mice, respectively. Pharmacological effects of the test materials were evaluated to compared test groups (n=6) with a control group (n=6). Control group was administrated vehicle, only. The peak time was determined by administration of test material's random dose for 0.5, 1, 2, 4 hour. The time that the most protect was defined as a peak time and ED50 was determined by other dose administration at the peak time. Chemical (PIC) was dissolved in 0.9% saline and administered subcutaneously (s.c.) at its CD97 (convulsive dose 97%), the dose of Chemical (PIC) that produced clonic seizures in 97% into a loose fold of skin in the midline of the neck in a volume of 10 ul/g (mice) body weight. The animals were then transferred to observation cages and observed continuously for 45 min. Clonic seizure was elicited in approximately 97% of control group. Protection was defined as a complete absence of clonic seizure over the 45-min observation period. The effective dose of compound necessary to protect against generalized convulsive seizures to 50% of controls (i.e., ED50) was determined by log probit analysis using SPSS software program (SPSS Inc.). (Reference; White H. S., J. H. Woodhead, K. S. Wilcox, J. P. Stables, H. J. Kupferberg, and H. H. Wolf. General Principles; Discovery and Preclinical Development of Antiepileptic Drugs. In: R. H. Levy, R. H. Mattson, B. S. Meldrum, and E. Perucca, eds. Antiepileptic Drugs, 5th Ed. Lippincott Williams & Wilkins, Philadelphia 2002: pp. 36-48.) The obtained results are shown in following Table 10.

The subject of assay [2] is CFA-induced pain model in rats. In words: Antiallodynic activity on Complete Freund's Adjuvant (CFA)-induced inflammatory pain model. Format: in vivo, Sprague-Dawley rats. The settings on record: Rattus norvegicus, ip, 50 mg/kg intraperitoneally, von Frey threshold relative to sham, 0.5 hr after administration, read-out: Efficacy of 50 mg/kg(%). The method, then: Male, Sprague-Dawley rats (210-250 g, Nara Bio, Korea) were habituated for 1 week before surgery and allowed free access to food and water throughout the experimentation. Room temperature and humidity were maintained at 24±2 and 50±10%, respectively.
CFA-induced inflammatory pain was induced by the procedure of Nagakura et al. (2003) and Gregory P. et al. (2010) with minor modifications. CFA (sigma, USA) was injected in the right plantar with a 100 ul volume under gaseous anesthesia with isoflurane. Sham controls were injected with 100 ul of saline, and preparation of the vehicle controls were identical to the group treated with compound, except for administration of vehicles without indentical to the vihecle control group.
Tactile sensitivity (Mechanical allodynia) was evaluated using von Frey monofilaments before and after treatment, and animals were include in the study only if the withdrawal threshold value was less than 4 g. One week after CFA injection, CFA-infused animals, sham-operated animal, and vehicle-operated animals were tested for tactile sensitivity with von Frey monofilaments, with 3 trials for each animal. All Animals were placed in a stainless steel mashe chamber and habituated for 30 min in the test cage. The tactile sensitivity for ipsilateral hind paw was measured using the up-and-down method (Dixon, 1980) with seven von Frey monofilaments (0.4, 1, 2, 4, 6, 8, and 15 g) to 3 trials. The tactile sensitivity test was followed by Dixon's method (Dixon, 1980). The 50% paw withdrawal threshold for each paw was calculated using the following formula: [Xth]log=[vFr]log+ky where [vFr] is the force of the last von Frey used, k=0.2249 which is the average interval (in log units) between the von Frey monofilaments, and y is a value that depends upon the pattern of withdrawal responses (Dixon, 1980).
Antiallodynic effect of compounds was evaluated at the dose of 50 mg/kg (n=4-6), intraperitoneally administrated in a volume of 5 ul/g bw in a vehicle of 30% (v/v) PEG or 20% (v/v) Tween 80. The test was performed peak time of efficacy (0.5 hr) after compound administration.
The relative values compared to the sham (% control) were calculated and shown in Table 5, which show an antiallodynic effect of Compound 1 on CFA-induced pain model in rats.

In assay [3] the test system is PTZ (Pentylenetetrazol)-induced clonic seizure in rats. In words: Anti-epilepsy activity, scPTZ test in rats. Format: in vivo, SD rats. The text has this:
(§1) In this experiment, each test compound sample was formulated as described in Biological Experimental Example 1, and administered intraperitoneally to the test animals (mice; ICR or Rat; SD); Experimental animals, male ICR mice and male SD rats, were purchased from OrientBio or Nara biotech, Korea, and housed 4-5 mice per a cage for 4-5 days. The range of mice body weight was used between 19 and 26 grams and range of rats body weight was used between 100 and 130 grams. After Peak time (0.5, 1, 2 and 4 hr) from the administration, PTZ (Pentylenetetrazol) was administered subcutaneously in the concentration capable of inducing 97% intermittent convulsions (mice: 100-110 mg/kg?bw, 10 μl/g, or rats: 90-110 mg/kg?bw, 2 μl/g). If clonic seizure was not observed for at least 30 minutes in the PTZ administered animal, it can be considered that the test compound has anti-epilepsy activity. The median effective dose (ED50) is determined using 6 animals per a concentration (total three different concentrations), and calculated by Litchfield and Wicoxon log-probit method which is a dose-response relationship.

For assay [4], the system named is Lithium-pilocarpine induced seizure in rats. In words: Lithium-pilocarpine induced epilepsy test (LI-PILO), prevention test. Format: in vivo, Sprague-Dawley rats. Conditions: Rattus norvegicus, ip, prevention, read-out: Lithium pilocarpine model (pre) ED50. How it is done: Male Sprague-Dawley rats (purchased from Orient Bio Inc. Korea) of body weight 175 grams were used for these studies and 3 rats per cage were housed for 4-5 days. On the day prior to SE, rats received 127 mg/kg lithium chloride (Sigma, St. Louis, Mo., U.S.A.) intraperitoneally (i.p.). Approximately 18-20 h following this treatment, rats were given an i.p. injection of the concentration capable of inducing 97% intermittent convulsions pilocarpine(Sigma, 30-43 mg/kg). An i.p. injection of 2 mg/kg methyl-scopolamine (Sigma) was administered 30 min prior to pilocarpine to block the effects of the muscarinic agonist on peripheral cholinergic receptors. Test drugs were dissolved in 20% tween80 (Sigma).
The drugs were administered intraperitoneally (i.p.) in a volume of 2 μl/g body weight. Pharmacological effects of all of the test materials were evaluated to compare test groups (n=6) with a control group (n=6). Control group was administered vehicle only. The efficacy was measured 0.5, 1, 2, or 4 hours after the administration of the test material. The time point that the most animals were protected was defined as peak time and the ED50 was determined at peak time. The animals were then transferred to observation cages and observed continuously for 90 min Seizure was elicited in approximately 95% of the control group. Protection was defined as complete absence of seizure grade 3-5 (Racine scale; Racine, 1972) over the 90-min observation period. The effective dose of the compound necessary to protect 50% of the animals against seizures compared to controls (i.e., ED50) was determined by a curve fitting program (Excel 2007, Microsoft).

Assay [5] relates to MES (electroshock) seizure in rats. The experiment in a line: Anti-epilepsy activity, MES test in rats. Conditions: Rattus norvegicus, po. Format: in vivo, SD rats. How it is done:
(§2) In the MES test (Ref., G. Villetti et al. Neuropharmacology 40(2001) 866-878), an electrical stimulus (mice: 50 mA, 60 Hz, 0.2 sec, and rats: 150 mA, 60 Hz, 0.2 sec in the test animal) supplied by an 11A Shocker (IITC Life Science Company) was delivered through corneal electrodes. All mice or rats assigned to any electroshock at peak time were treated with each test compound sample which was dissolved in 20% tween 80 prepared by saline solvent applied orally before the test. […] Three doses of the test sample were administered orally to 9-18 animals (3-6 mice per dose) for evaluating the respective doses at which 50% of the animals were protected from seizure (ED50). The ED50 value (median effective dose) was calculated by Litchfield and Wicoxon log-probit method which is a dose-response relationship. Experimental animals, male ICR mice and male SD rats, were purchased from OrientBio, Samtako, or Nara Biotech, Korea, and housed in cages (4-5 mice or 3 rats per cage) for 4-5 days. The range of mice body weight was between 19 and 25 grams and range of rats body weight was between 100 and 130 grams.

In assay [6] the test system is MES (electroshock) seizure in mice. In words: Anti-epilepsy activity, MES test in mouse. Format: in vivo, ICR mice. Conditions: po. The method, then: as §2
Assay [7] concerns PTZ (Pentylenetetrazol)-induced clonic seizure in mice. In words: Anti-epilepsy activity, scPTZ test in mouse. Format: in vivo, ICR mice. The settings on record: ip.
Description: as §1

Assay [8] deals with ICR mice on hot plate. In words: Hot-plate test. Format: in vivo. The settings on record: Mus musculus, po, orally, withdrawal latency. How it is done:
To examine the pain relief effect of the carbamate compounds, a hot-plate test was conducted in referring to Current Protocols in Neuroscience; Behavioral Neuroscience Unit 8.9.
ICR mice (male, 25-28 g; Orient Bio, Korea) were habituated before test (in test room) for 1 hour. Animals were fasted 2 hr before administration of compounds. Compounds were orally administered at the three dose, 10 ul/g, by bodyweight (n=4-6/group). All compounds were dissolved in a vehicle of 30% (v/v) PEG 400 or 20% (v/v) Tween 80. The control group was treated the vehicle without compounds.
0.25-2.0 hr after the administration of compounds, the mice were put on a hot plate pre-heated to 55±1 (Hu, X. et al, 2008), and then, the withdrawal latency time was measured (cut-off time: 30 sec) until the point when each mouse was taking a paw off from the plate, shaking, licking a paw or hind leg, or jumping from the plate.
(In general: In hot-plate and tail-flick tests a longer latency is read as antinociception.)

Assay [9] deals with ICR mice, tail-flick analgesia meter. The experiment in a line: Tail-flick test. Format: in vivo. The settings on record: orally, withdrawal latency. The method, then: To examine the pain relief effect of the carbamate compounds, a tail-flick test was conducted, referring to Current Protocols in Neuroscience; Behavioral Neuroscience Unit 8.9.
ICR mice (male, 25-30g; Orient Bio, Korea) were habituated before test (in test room) for 1 hour. Animals were fasted 2 hr before administration of compounds. Each of Compound was orally administered at the 1-3 dose, 10 ul/g, by bodyweight (n=4-6/group). All compounds were dissolved in a vehicle of 30% (v/v) PEG 400 or 20% (v/v) Tween 80. The control group was treated the vehicle without compounds.
After the administration of compounds, the mice tail were put on a tail-flick analgesia meter. To avoid tissue damage, maximal exposure time to pain stimuli was restricted to 15 s. The withdrawal latency was measured to the time to the point when each mouse responded. The relative values compared to the control (% control) were calculated.
The relative values compared to the sham were calculated and shown in Table 7, which show effect of the compound of examples on tail-flick test in Mice.

For assay [10], the system named is corneally kindled rats. In words: Corneal kindling (CK) rat model. Format: in vivo, Sprague-Dawley rats. The settings on record: po. The text has this: Male Sprague-Dawley rats (purchased from Orient Bio Inc. Korea) of body weight 85-100 g were used for these studies. The MES test using the electroshock seizure apparatus designed by Rodent Shocker Type221 (Hugo Sachs Elektronik, Germany). The kindled rat models were electrically stimulated (8 mA, 60 Hz, 2 s, corneal electrodes) twice daily for 21 days until stage 5 seizure scored by Racine's scale (Racine, 1972) were evoked. The kindled rats were fasted and adapted to test condition, for at least 1 hour before the administration of test material. The drugs were administered orally (p.o.) in a volume of 4 μl/g body weight. The corneally kindled rat model test is a model for generalized […] seizures or bipolar disorder and identifies the compound which prevents seizure or bipolar disorder spread. The shock level was set at 8 mA, 60 Hz and the duration was set at 2 s. A drop of 0.9% saline was placed in each eye, the electrodes were placed over the eyes, and the shock was administered immediately. Pharmacological effects of the test materials were evaluated to compare the test groups (n=6) with a control group (n=6). Control group was administrated vehicle, only. The peak time was determined by administration test material's random dose for 0.5, 1, 2, 4 hour. The time that the most protect was defined peak time and ED50 was determined by other dose administration at peak time. […]

As for `NC(=O)O[C@H]1CCc2cccc(Cl)c2[C@H]1O` [Example 2, (1R, 2S)-8-chloro-1-hydroxy-1,2,3,4-tetrahydronaphthalen-2-yl carbamate], the “PIC(ip) efficacy %” value in [1] is given as 50 (66.6%). In addition, in [2], the response vs control in vivo at 50 mg/kg turned out to be 23.2%. The ED50 in [3] (Rattus norvegicus, ip) amounted to 39.7 mg/kg; in assay [4], 50 mg/kg; in assay [5] it was 11.6 mg/kg; in assay [6] it was 41 mg/kg; in assay [7] it was 26.6 mg/kg.
`NC(=O)O[C@H]1Cc2cccc(Cl)c2[C@H]1O` [Example 52, (1R, 2S)-7-chloro-1-hydroxy-2,3-dihydro-1H-inden-2-yl carbamate]: the response vs control in vivo at 50 mg/kg in [2] was 34.7%. Besides, the “scPTZ test (ip) efficacy %” value in assay [3] (dose 100 mg/kg) was 100 (33.3%,. For the same compound, the ED50 amounted to 63 mg/kg in assay [4], 119 mg/kg in assay [8], 10.9 mg/kg in assay [5] and 24.3 mg/kg in assay [6]. For the same compound, the “Tail-flick test Dose” value in [9] is on record as over 200 mg/kg.
As to `NC(=O)O[C@@H]1Cc2cc(Cl)cc(Cl)c2[C@@H]1O` [Example 59, (1S, 2R)-5,7-dichloro-1-hydroxy-2,3-dihydro-1H-inden-2-yl carbamate], the ED50 in assay [10] is 21.4 mg/kg; in assay [6], 56.5 mg/kg.

One may read the ED50 as the dose at which the effect has come halfway, by size or by number of responders.
